Reference: patent US20220409620A1, “REDUCING IMMUNOGENICITY TO PEGLOTICASE” (Horizon Pharma Rheumatology LLC, priority 2016, published 2022)

Tested on: adult patients with uncontrolled gout
Test: Serum uric acid (sUA) levels and sUA responder rate, open-label study of pegloticase with MTX (MIRROR OL)
Assay type: in vivo, human
Protocol: The primary objective is to estimate the response rate during Month 6 (Weeks 20, 22, and 24), as measured by the sustained normalization of serum uric acid (SUA) to <6 mg/dL for at least 80% of the time during Month 6 in subjects receiving KXX with MTX.
The primary efficacy outcome endpoint is the sustained normalization of SUA to <6 mg/dL for at least 80% of the time during month 6 (weeks 20, 22, and 24) in subjects receiving KXX with MTX. […] Participants who achieve this endpoint were classified as “responders.” Serum uric acid (SUA) responders may also be defined as participants achieving and maintaining SUA <6 mg/dL for at least 80% of the time during Month 6 (Weeks 20, 22, and 24).
Blood samples may be collected prior to each pegloticase infusion for measurement of SUA levels using the Beckman Coulter AU System Uric Acid procedure. Participants were declared “non-responders” if there were SUA measures >6 mg/dL at 2 consecutive study visits beginning with the week 2 visit. […] This assumption and subsequent discontinuation of pegloticase was consistent with the protocol of large phase III randomized controlled trials and the product label. A formal stopping rule was 2 occasions of SUA levels of greater than 6 mg/dL.
Clinical Chemistry—Blood samples were collected prior to each pegloticase infusion for measurement of SUA levels (primary efficacy parameter) using the Beckman Coulter AU System Uric Acid procedure. In this procedure uric acid is converted to hydrogen peroxide. Hydrogen peroxide reacts with reagent to produce a chromophore which is read bichromatically at 660/800 nm. The amount of dye formed is proportional to the uric acid concentration in the sample.
Serum samples for measurement of SUA levels were collected at the Screening Visit, the Week −4 Visit (prior to the first dose of MTX), and the Week −2 Visit during the MTX Run-in Period; within 48 hours prior to each pegloticase infusion and after the end of each pegloticase infusion prior to discharge from the site during the Pegloticase+IMM Period; at the non-infusion Week 52/End of Study/Early Termination Visits and at the Post Treatment 3 and 6 Month Follow-up Visits. Additional serum samples for SUA levels were collected at optional non-infusion (Frequent Sampling) Visits at Weeks 1 and 7. […] Subjects with SUA level >6 mg/dL at 2 consecutive visits beginning at Week 2 visit discontinued treatment, completed the End of Pegloticase Infusion Visit procedures within 2 weeks and continued the subject visits according to the protocol (without treatment).
Efficacy analyses were performed using the modified intention-to-treat (mITT) population, defined as all enrolled subjects who received ≥1 dose of pegloticase. The proportion of Month 6 responders was summarized, along with a 95% confidence interval for the proportion. The proportion of Month 3 and overall (Months 3 and 6 combined) responders was analyzed similarly.
A subject was declared a non-responder if the subject had SUA level >6 mg/dL at 2 consecutive study visits beginning with the Week 2 Visit. In addition, a subject who withdraws from study treatment for any reason after the first dose of pegloticase in the KXX+MTX Period and prior to Month 6 (for the primary endpoint) or Month 3 (for the secondary endpoint) was considered a non-responder if SUA values were not collected at the planned time points.
Patients were administered oral MTX (15 mg/week) and folate (1 mg/day) 4 weeks prior to the first pegloticase infusion (Day 1) and throughout the pegloticase treatment period. Blood was drawn prior to each infusion to measure sUA level, monitor clinical parameters, and examine for ADA development. All patients followed typical IR prophylaxis protocols (fexofenadine one day before and the morning of each infusion and acetaminophen and IV corticosteroid the morning of each infusion).

[1] = Month 6 sUA Responders, Week 48-Post-Infusion, n=3
[2] = Month 6 sUA Responders, Week 48-Pre-Infusion, n=2
[3] = Month 6 sUA Responders, Week 50-Post-Infusion, n=3
[4] = Month 6 sUA Responders, Week 50-Pre-Infusion, n=2
[5] = Month 6 sUA Responders, Week 52/ET, n=2
[6] = Week 2 - Post-Infusion, mITT Population
[7] = Week 2 - Pre-Infusion, mITT Population
[8] = Week 4 - Post-Infusion, mITT Population
[9] = Week 4 - Pre-Infusion, mITT Population
[10] = Week 6 - Post-Infusion, mITT Population
[11] = Week 6 - Pre-Infusion, mITT Population
[12] = Week 8 - Post-Infusion, mITT Population
[13] = Week 8 - Pre-Infusion, mITT Population
[14] = Week 10 - Post-Infusion, mITT Population
[15] = Week 10 - Pre-Infusion, mITT Population
[16] = Week 12 - Post-Infusion, mITT Population
[17] = Week 12 - Pre-Infusion, mITT Population
[18] = Week 14 - Post-Infusion, mITT Population
[19] = Week 14 - Pre-Infusion, mITT Population
[20] = Week 16 - Post-Infusion, mITT Population
[21] = Week 16 - Pre-Infusion, mITT Population
[22] = Week 18 - Post-Infusion, mITT Population
[23] = Week 18 - Pre-Infusion, mITT Population

## pegloticase
[1]
  Serum Uric Acid, Change from Baseline, Mean (SD): −10.33 (4.922) mg/dL
  Serum Uric Acid, Change from Baseline, Median: -9.80 mg/dL
  Serum Uric Acid, Observed, Mean (SD): 1.60 (2.252) mg/dL
  Serum Uric Acid, Observed, Median: 0.30 mg/dL
  sUA <6 mg/dL, n (%): 3 (100%)
[2]
  Serum Uric Acid, Change from Baseline, Mean (SD): −12.65 (4.031) mg/dL
  Serum Uric Acid, Change from Baseline, Median: -12.65 mg/dL
  Serum Uric Acid, Observed, Mean (SD): 0.30 (0.000) mg/dL
  Serum Uric Acid, Observed, Median: 0.30 mg/dL
  sUA <6 mg/dL, n (%): 2 (100%)
[3]
  Serum Uric Acid, Change from Baseline, Mean (SD): −10.57 (4.598) mg/dL
  Serum Uric Acid, Change from Baseline, Median: -9.80 mg/dL
  Serum Uric Acid, Observed, Mean (SD): 1.37 (1.848) mg/dL
  Serum Uric Acid, Observed, Median: 0.30 mg/dL
  sUA <6 mg/dL, n (%): 3 (100%)
[4]
  Serum Uric Acid, Change from Baseline, Mean (SD): −12.65 (4.031) mg/dL
  Serum Uric Acid, Change from Baseline, Median: -12.65 mg/dL
  Serum Uric Acid, Observed, Mean (SD): 0.30 (0.000) mg/dL
  Serum Uric Acid, Observed, Median: 0.30 mg/dL
  sUA <6 mg/dL, n (%): 2 (100%)
[5]
  Serum Uric Acid, Change from Baseline, Mean (SD): −12.65 (4.031) mg/dL
  Serum Uric Acid, Change from Baseline, Median: -12.65 mg/dL
  Serum Uric Acid, Observed, Mean (SD): 0.30 (0.000) mg/dL
  Serum Uric Acid, Observed, Median: 0.30 mg/dL
  sUA <6 mg/dL, n (%): 2 (100%)
Week 1, mITT Population
  Serum Uric Acid, Change from Baseline, Mean (SD): −7.28 (1.556) mg/dL
  Serum Uric Acid, Change from Baseline, Median: -7.75 mg/dL
  Serum Uric Acid, Observed, Mean (SD): 0.30 (0.000) mg/dL
  Serum Uric Acid, Observed, Median: 0.30 mg/dL
  sUA <6 mg/dL, n (%): 6 (100%)
[6]
  Serum Uric Acid, Change from Baseline, Mean (SD): −8.86 (2.486) mg/dL
  Serum Uric Acid, Change from Baseline, Median: -8.70 mg/dL
  Serum Uric Acid, Observed, Mean (SD): 0.30 (0.000) mg/dL
  Serum Uric Acid, Observed, Median: 0.30 mg/dL
  sUA <6 mg/dL, n (%): 14 (100%)
[7]
  Serum Uric Acid, Change from Baseline, Mean (SD): −7.90 (2.878) mg/dL
  Serum Uric Acid, Change from Baseline, Median: -8.70 mg/dL
  Serum Uric Acid, Observed, Mean (SD): 1.26 (2.163) mg/dL
  Serum Uric Acid, Observed, Median: 0.30 mg/dL
  sUA <6 mg/dL, n (%): 13 (92.9%)
[8]
  Serum Uric Acid, Change from Baseline, Mean (SD): −8.92 (2.577) mg/dL
  Serum Uric Acid, Change from Baseline, Median: -8.80 mg/dL
  Serum Uric Acid, Observed, Mean (SD): 0.30 (0.000) mg/dL
  Serum Uric Acid, Observed, Median: 0.30 mg/dL
  sUA <6 mg/dL, n (%): 13 (100%)
[9]
  Serum Uric Acid, Change from Baseline, Mean (SD): −7.54 (3.768) mg/dL
  Serum Uric Acid, Change from Baseline, Median: -8.00 mg/dL
  Serum Uric Acid, Observed, Mean (SD): 1.61 (2.637) mg/dL
  Serum Uric Acid, Observed, Median: 0.30 mg/dL
  sUA <6 mg/dL, n (%): 12 (85.7%)
[10]
  Serum Uric Acid, Change from Baseline, Mean (SD): −8.98 (2.679) mg/dL
  Serum Uric Acid, Change from Baseline, Median: -8.95 mg/dL
  Serum Uric Acid, Observed, Mean (SD): 0.30 (0.000) mg/dL
  Serum Uric Acid, Observed, Median: 0.30 mg/dL
  sUA <6 mg/dL, n (%): 12 (100%)
[11]
  Serum Uric Acid, Change from Baseline, Mean (SD): −8.31 (3.538) mg/dL
  Serum Uric Acid, Change from Baseline, Median: -8.80 mg/dL
  Serum Uric Acid, Observed, Mean (SD): 0.91 (2.191) mg/dL
  Serum Uric Acid, Observed, Median: 0.30 mg/dL
  sUA <6 mg/dL, n (%): 12 (92.3%)
Week 7, mITT Population
  Serum Uric Acid, Change from Baseline, Mean (SD): −8.90 (4.755) mg/dL
  Serum Uric Acid, Change from Baseline, Median: -7.85 mg/dL
  Serum Uric Acid, Observed, Mean (SD): 0.30 (0.000) mg/dL
  Serum Uric Acid, Observed, Median: 0.30 mg/dL
  sUA <6 mg/dL, n (%): 4 (100%)
[12]
  Serum Uric Acid, Change from Baseline, Mean (SD): −8.98 (2.679) mg/dL
  Serum Uric Acid, Change from Baseline, Median: -8.95 mg/dL
  Serum Uric Acid, Observed, Mean (SD): 0.30 (0.000) mg/dL
  Serum Uric Acid, Observed, Median: 0.30 mg/dL
  sUA <6 mg/dL, n (%): 12 (100%)
[13]
  Serum Uric Acid, Change from Baseline, Mean (SD): −8.20 (3.624) mg/dL
  Serum Uric Acid, Change from Baseline, Median: -8.33 mg/dL
  Serum Uric Acid, Observed, Mean (SD): 1.08 (2.472) mg/dL
  Serum Uric Acid, Observed, Median: 0.30 mg/dL
  sUA <6 mg/dL, n (%): 11 (91.7%)
[14]
  Serum Uric Acid, Change from Baseline, Mean (SD): −8.97 (2.810) mg/dL
  Serum Uric Acid, Change from Baseline, Median: -8.80 mg/dL
  Serum Uric Acid, Observed, Mean (SD): 0.30 (0.000) mg/dL
  Serum Uric Acid, Observed, Median: 0.30 mg/dL
  sUA <6 mg/dL, n (%): 11 (100%)
[15]
  Serum Uric Acid, Change from Baseline, Mean (SD): −8.33 (3.476) mg/dL
  Serum Uric Acid, Change from Baseline, Median: -8.70 mg/dL
  Serum Uric Acid, Observed, Mean (SD): 0.95 (2.252) mg/dL
  Serum Uric Acid, Observed, Median: 0.30 mg/dL
  sUA <6 mg/dL, n (%): 11 (91.7%)
[16]
  Serum Uric Acid, Change from Baseline, Mean (SD): −9.13 (2.911) mg/dL
  Serum Uric Acid, Change from Baseline, Median: -9.05 mg/dL
  Serum Uric Acid, Observed, Mean (SD): 0.30 (0.000) mg/dL
  Serum Uric Acid, Observed, Median: 0.30 mg/dL
  sUA <6 mg/dL, n (%): 10 (100%)
[17]
  Serum Uric Acid, Change from Baseline, Mean (SD): −8.98 (2.806) mg/dL
  Serum Uric Acid, Change from Baseline, Median: -8.80 mg/dL
  Serum Uric Acid, Observed, Mean (SD): 0.30 (0.015) mg/dL
  Serum Uric Acid, Observed, Median: 0.30 mg/dL
  sUA <6 mg/dL, n (%): 11 (100%)
[18]
  Serum Uric Acid, Change from Baseline, Mean (SD): −9.01 (2.959) mg/dL
  Serum Uric Acid, Change from Baseline, Median: -9.05 mg/dL
  Serum Uric Acid, Observed, Mean (SD): 0.30 (0.000) mg/dL
  Serum Uric Acid, Observed, Median: 0.30 mg/dL
  sUA <6 mg/dL, n (%): 10 (100%)
[19]
  Serum Uric Acid, Change from Baseline, Mean (SD): −8.97 (2.810) mg/dL
  Serum Uric Acid, Change from Baseline, Median: -8.80 mg/dL
  Serum Uric Acid, Observed, Mean (SD): 0.30 (0.000) mg/dL
  Serum Uric Acid, Observed, Median: 0.30 mg/dL
  sUA <6 mg/dL, n (%): 11 (100%)
[20]
  Serum Uric Acid, Change from Baseline, Mean (SD): −8.97 (2.810) mg/dL
  Serum Uric Acid, Change from Baseline, Median: -8.80 mg/dL
  Serum Uric Acid, Observed, Mean (SD): 0.30 (0.000) mg/dL
  Serum Uric Acid, Observed, Median: 0.30 mg/dL
  sUA <6 mg/dL, n (%): 11 (100%)
[21]
  Serum Uric Acid, Change from Baseline, Mean (SD): −8.97 (2.810) mg/dL
  Serum Uric Acid, Change from Baseline, Median: -8.80 mg/dL
  Serum Uric Acid, Observed, Mean (SD): 0.30 (0.000) mg/dL
  Serum Uric Acid, Observed, Median: 0.30 mg/dL
  sUA <6 mg/dL, n (%): 11 (100%)
[22]
  Serum Uric Acid, Change from Baseline, Mean (SD): −8.97 (2.810) mg/dL
  Serum Uric Acid, Change from Baseline, Median: -8.80 mg/dL
  Serum Uric Acid, Observed, Mean (SD): 0.30 (0.000) mg/dL
  Serum Uric Acid, Observed, Median: 0.30 mg/dL
  sUA <6 mg/dL, n (%): 11 (100%)
[23]
  Serum Uric Acid, Change from Baseline, Mean (SD): −8.97 (2.810) mg/dL
  Serum Uric Acid, Change from Baseline, Median: -8.80 mg/dL
  Serum Uric Acid, Observed, Mean (SD): 0.30 (0.000) mg/dL
  Serum Uric Acid, Observed, Median: 0.30 mg/dL
  sUA <6 mg/dL, n (%): 11 (100%)
